Results published in ChEMBL document CHEMBL1909046, “DrugMatrix in vitro pharmacology data”.

Columns and labels:
[1] = DRUGMATRIX: Platelet-Derived Growth Factor (PDGF) radioligand binding (ligand: [125I] PDGF); format: cell-based; conditions: nih3t3; Not Active = under 50% inhibition at 10 µM
[2] = target: T1, C-X-C chemokine receptor type 1 (Homo sapiens, UniProt P25024); note: in other assays of this panel Not Active means under 50% inhibition at 10 µM
T1 sequence (P25024 whole entry): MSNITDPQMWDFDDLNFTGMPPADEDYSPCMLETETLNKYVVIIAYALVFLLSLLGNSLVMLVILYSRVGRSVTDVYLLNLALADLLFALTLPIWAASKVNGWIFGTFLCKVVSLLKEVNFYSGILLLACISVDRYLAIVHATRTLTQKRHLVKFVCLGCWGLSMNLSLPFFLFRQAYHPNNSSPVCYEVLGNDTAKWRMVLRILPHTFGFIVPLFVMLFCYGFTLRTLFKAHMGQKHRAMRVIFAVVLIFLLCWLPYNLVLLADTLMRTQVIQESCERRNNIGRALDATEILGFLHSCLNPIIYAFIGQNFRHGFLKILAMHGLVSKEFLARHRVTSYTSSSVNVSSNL

[3] = target: Receptor tyrosine-protein kinase erbB-2 (Homo sapiens, UniProt P04626); assay: biochemical; format: cell-based, Insect cells; conditions: insect cells;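 note: inhibition of HER2 kinase enzyme activity, measured with Poly(Glu:Tyr) as the phosphorylation substrate; in other assays of this panel Not Active means under 50% inhibition at 10 µM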
Sequence of Receptor tyrosine-protein kinase erbB-2 (P04626 whole entry): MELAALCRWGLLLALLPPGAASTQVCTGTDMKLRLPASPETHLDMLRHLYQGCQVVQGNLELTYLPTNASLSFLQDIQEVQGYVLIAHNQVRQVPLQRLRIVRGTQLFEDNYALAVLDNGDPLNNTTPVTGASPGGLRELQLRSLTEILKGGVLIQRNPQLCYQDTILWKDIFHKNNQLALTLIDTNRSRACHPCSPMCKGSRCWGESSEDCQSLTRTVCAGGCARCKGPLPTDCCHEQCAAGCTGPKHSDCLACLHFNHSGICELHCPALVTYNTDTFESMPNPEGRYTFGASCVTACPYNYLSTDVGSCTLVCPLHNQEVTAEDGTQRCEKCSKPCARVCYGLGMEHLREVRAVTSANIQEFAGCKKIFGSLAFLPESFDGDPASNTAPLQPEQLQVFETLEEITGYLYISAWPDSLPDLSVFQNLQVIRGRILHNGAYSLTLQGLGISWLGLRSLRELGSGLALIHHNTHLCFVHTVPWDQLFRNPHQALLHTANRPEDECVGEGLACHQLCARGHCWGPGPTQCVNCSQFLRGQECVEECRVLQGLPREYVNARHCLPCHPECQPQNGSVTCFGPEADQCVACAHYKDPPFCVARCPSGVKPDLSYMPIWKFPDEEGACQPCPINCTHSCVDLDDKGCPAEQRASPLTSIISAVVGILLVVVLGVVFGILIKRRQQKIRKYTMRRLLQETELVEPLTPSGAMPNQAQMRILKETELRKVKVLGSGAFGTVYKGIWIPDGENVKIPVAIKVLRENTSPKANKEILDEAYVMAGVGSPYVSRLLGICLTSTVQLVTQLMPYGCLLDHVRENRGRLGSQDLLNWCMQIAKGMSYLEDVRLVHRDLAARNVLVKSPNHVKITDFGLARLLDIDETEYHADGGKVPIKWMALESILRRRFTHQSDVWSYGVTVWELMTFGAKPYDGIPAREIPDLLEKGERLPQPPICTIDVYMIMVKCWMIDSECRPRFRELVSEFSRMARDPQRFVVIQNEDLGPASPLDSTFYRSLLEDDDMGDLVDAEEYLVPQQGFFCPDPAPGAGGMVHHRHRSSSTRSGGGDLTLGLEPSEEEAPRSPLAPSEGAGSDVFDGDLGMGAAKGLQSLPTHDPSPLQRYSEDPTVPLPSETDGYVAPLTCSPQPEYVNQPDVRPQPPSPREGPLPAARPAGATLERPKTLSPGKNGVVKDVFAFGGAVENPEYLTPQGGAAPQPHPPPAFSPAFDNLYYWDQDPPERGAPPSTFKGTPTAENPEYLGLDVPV

Glucocorticoid receptor = target: T2, Glucocorticoid receptor (Homo sapiens, UniProt P04150); conditions: hela s3; note: in other assays of this panel Not Active means under 50% inhibition at 10 µM
T2 sequence (P04150 whole entry): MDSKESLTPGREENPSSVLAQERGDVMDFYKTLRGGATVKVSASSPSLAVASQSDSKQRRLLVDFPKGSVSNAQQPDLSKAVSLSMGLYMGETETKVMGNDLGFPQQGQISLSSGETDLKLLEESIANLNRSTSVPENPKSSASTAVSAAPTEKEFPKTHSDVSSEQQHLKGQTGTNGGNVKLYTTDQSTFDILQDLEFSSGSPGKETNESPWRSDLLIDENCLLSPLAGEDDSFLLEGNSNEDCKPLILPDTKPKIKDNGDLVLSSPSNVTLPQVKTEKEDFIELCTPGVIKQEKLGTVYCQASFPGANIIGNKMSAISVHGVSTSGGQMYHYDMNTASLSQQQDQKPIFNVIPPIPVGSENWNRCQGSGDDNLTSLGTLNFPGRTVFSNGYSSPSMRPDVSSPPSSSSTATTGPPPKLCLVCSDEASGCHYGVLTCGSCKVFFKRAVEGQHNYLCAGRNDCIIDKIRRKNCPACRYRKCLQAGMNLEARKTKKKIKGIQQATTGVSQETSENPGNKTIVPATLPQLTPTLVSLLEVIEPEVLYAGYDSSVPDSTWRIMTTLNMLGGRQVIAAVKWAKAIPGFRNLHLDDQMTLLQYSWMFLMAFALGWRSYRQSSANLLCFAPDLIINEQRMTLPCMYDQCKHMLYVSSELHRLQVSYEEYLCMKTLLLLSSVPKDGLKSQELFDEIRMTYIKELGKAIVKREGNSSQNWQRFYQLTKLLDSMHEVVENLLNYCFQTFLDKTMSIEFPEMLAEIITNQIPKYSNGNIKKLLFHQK

[4] = target: Tyrosine-protein kinase Lck (Homo sapiens, UniProt P06239); assay: DRUGMATRIX: Protein Tyrosine Kinase, LCK enzyme inhibition (substrate: Poly(Glu:Tyr)); format: cell-based, Insect cells; conditions: insect cells; Not Active = under 50% inhibition at 10 µM
Sequence of Tyrosine-protein kinase Lck (P06239 whole entry): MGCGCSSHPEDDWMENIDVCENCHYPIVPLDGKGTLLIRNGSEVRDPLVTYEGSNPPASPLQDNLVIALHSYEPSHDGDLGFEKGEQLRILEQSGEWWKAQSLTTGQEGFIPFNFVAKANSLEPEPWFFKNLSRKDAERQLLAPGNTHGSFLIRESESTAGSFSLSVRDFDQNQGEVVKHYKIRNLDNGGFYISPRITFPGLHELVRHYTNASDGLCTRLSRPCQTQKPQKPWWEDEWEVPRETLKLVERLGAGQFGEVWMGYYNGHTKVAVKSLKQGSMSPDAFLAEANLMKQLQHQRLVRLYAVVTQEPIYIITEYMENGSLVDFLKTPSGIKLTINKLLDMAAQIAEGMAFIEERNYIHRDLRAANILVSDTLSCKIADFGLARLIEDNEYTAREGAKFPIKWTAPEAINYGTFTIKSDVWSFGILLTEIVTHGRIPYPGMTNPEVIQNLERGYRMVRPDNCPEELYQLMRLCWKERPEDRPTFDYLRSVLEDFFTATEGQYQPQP

[5] = target: T3, Cholecystokinin receptor type A (Homo sapiens, UniProt P32238); format: cell membranes, Membrane; conditions: 1321-n1; note: in other assays of this panel Not Active means under 50% inhibition at 10 µM
T3 sequence (P32238 whole entry): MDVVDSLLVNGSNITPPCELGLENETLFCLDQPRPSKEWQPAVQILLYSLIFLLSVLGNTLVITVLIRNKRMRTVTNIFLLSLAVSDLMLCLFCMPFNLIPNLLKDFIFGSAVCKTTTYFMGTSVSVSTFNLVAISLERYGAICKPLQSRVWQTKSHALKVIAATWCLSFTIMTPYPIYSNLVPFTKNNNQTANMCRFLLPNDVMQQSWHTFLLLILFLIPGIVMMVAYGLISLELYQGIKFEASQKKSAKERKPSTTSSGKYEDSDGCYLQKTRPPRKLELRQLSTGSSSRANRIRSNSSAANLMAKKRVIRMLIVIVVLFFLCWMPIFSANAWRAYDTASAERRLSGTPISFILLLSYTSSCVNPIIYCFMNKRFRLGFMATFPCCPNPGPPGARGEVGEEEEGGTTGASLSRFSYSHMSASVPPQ

[6] = target: T4, Vasoactive intestinal polypeptide receptor 1 (Homo sapiens, UniProt P32241); format: cell membranes, Membrane; conditions: ht-29; note: in other assays of this panel Not Active means under 50% inhibition at 10 µM
T4 sequence (P32241 whole entry): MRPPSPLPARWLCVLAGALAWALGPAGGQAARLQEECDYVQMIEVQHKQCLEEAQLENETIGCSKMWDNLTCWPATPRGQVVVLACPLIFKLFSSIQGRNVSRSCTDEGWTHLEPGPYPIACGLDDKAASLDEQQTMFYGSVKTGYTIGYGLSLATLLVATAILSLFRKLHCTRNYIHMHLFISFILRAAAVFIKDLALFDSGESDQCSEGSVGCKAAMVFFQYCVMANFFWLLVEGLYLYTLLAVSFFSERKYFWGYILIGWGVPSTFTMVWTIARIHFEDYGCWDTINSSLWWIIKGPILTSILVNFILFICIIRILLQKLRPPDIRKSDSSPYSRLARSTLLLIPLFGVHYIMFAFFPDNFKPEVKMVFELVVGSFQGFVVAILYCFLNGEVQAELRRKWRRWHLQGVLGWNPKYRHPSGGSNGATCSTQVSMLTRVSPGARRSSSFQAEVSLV

O=P1(NCCCl)OCCCN1CCCl (configuration not stated) [IFOSFAMIDE]
Not Active: IC50 [1] | Ki [1] | IC50 [2] | IC50 [3] | IC50 (Glucocorticoid receptor) | IC50 [4] | IC50 [5] | IC50 [6]

CC(C)n1c(/C=C/C(O)CC(O)CC(=O)O)c(-c2ccc(F)cc2)c2ccccc21 (configuration not stated) [FLUVASTATIN]
Not Active: IC50 [1] | Ki [1] | IC50 [2] | IC50 [3] | IC50 (Glucocorticoid receptor) | IC50 [4] | IC50 [5] | IC50 [6]

Cc1ccccc1N1CCN(CCc2nnc3n2CCCC3)CC1 [DAPIPRAZOLE]
Not Active: IC50 [1] | Ki [1] | IC50 [2] | IC50 [3] | IC50 (Glucocorticoid receptor) | IC50 [4] | IC50 [5] | IC50 [6]

COc1ccc(CN(CCN(C)C)c2ccccn2)cc1 [PYRILAMINE]
Not Active: IC50 [1] | Ki [1] | IC50 [2] | IC50 [3] | IC50 (Glucocorticoid receptor) | IC50 [4] | IC50 [5] | IC50 [6]

CC(C)NC[C@H](O)COc1cccc2[nH]ccc12
Not Active: IC50 [1] | Ki [1] | IC50 [2] | IC50 [3] | IC50 (Glucocorticoid receptor) | IC50 [4] | IC50 [5] | IC50 [6]

CCCSc1ccc2nc(NC(=O)OC)[nH]c2c1 [ALBENDAZOLE]
Not Active: IC50 [1] | Ki [1] | IC50 [2] | IC50 [3] | IC50 (Glucocorticoid receptor) | IC50 [4] | IC50 [5] | IC50 [6]

NCC1(CC(=O)O)CCCCC1 [GABAPENTIN]
Not Active: IC50 [1] | Ki [1] | IC50 [2] | IC50 [3] | IC50 (Glucocorticoid receptor) | IC50 [4] | IC50 [5] | IC50 [6]

N=C(N)NCCCCNC(=N)N.O=S(=O)(O)O [ARCAINE SULFATE]
Not Active: IC50 [1] | Ki [1] | IC50 [2] | IC50 [3] | IC50 [4] | IC50 [5] | IC50 [6]

CC1(C)[C@@H](O[C@H]2O[C@H](C(=O)O)[C@@H](O)[C@H](O)[C@H]2O[C@@H]2O[C@H](C(=O)O)[C@@H](O)[C@H](O)[C@H]2O)CC[C@]2(C)[C@H]3C(=O)C=C4[C@@H]5C[C@@](C)(C(=O)O)CC[C@]5(C)CC[C@@]4(C)[C@]3(C)CC[C@@H]12 [GLYCYRRHIZIN]
Not Active: IC50 [1] | Ki [1] | IC50 [2] | IC50 [3] | IC50 [4] | IC50 [5] | IC50 [6]

Cc1[nH]cnc1CN1CCc2c(c3ccccc3n2C)C1=O [ALOSETRON]
Not Active: IC50 [1] | Ki [1] | IC50 [2] | IC50 [3] | IC50 [4] | IC50 [5] | IC50 [6]

CCCCCCCCCc1ccc(O)cc1 [4-NONYLPHENOL]
Not Active: IC50 [1] | Ki [1] | IC50 [2] | IC50 [3] | IC50 [4] | IC50 [5] | IC50 [6]

CC1COc2c(N3CCN(C)CC3)c(F)cc3c(=O)c(C(=O)O)cn1c23 (configuration not stated) [OFLOXACIN]
Not Active: IC50 [1] | Ki [1] | IC50 [2] | IC50 [3] | IC50 [4] | IC50 [5] | IC50 [6]

CC(=O)OCC(=O)[C@@]1(OC(C)=O)[C@@H](C)C[C@H]2[C@@H]3C[C@H](F)C4=CC(=O)C=C[C@]4(C)[C@@]3(F)[C@@H](O)C[C@@]21C [DIFLORASONE DIACETATE]
Not Active: IC50 [1] | Ki [1] | IC50 [2] | IC50 [3] | IC50 [4] | IC50 [5] | IC50 [6]

CC1(C)S[C@@H]2[C@H](NC(=O)[C@H](N)c3ccc(O)cc3)C(=O)N2[C@H]1C(=O)O [AMOXICILLIN]
Not Active: IC50 [1] | Ki [1] | IC50 [2] | IC50 [3] | IC50 [4] | IC50 [5] | IC50 [6]

Oc1cccc2cccnc12 [OXYQUINOLINE]
Not Active: IC50 [1] | Ki [1] | IC50 [2] | IC50 [3] | IC50 [4] | IC50 [5] | IC50 [6]
